According to publication PMC5791972 (PLoS ONE, 2018):
Like-named read-outs stand apart in the source and are kept apart here.

Tests used:
Na+ channel (site 2) = assay type: binding, rat; settings: 1.0E-06 M
A3 (h) = molecular target: T1, A3 (h) (Homo sapiens, UniProt P0DMS8); assay type: binding; settings: 1.0E-06 M
T1 construct: host or cells: HEK-293 cells
T1 sequence (P0DMS8 1-318): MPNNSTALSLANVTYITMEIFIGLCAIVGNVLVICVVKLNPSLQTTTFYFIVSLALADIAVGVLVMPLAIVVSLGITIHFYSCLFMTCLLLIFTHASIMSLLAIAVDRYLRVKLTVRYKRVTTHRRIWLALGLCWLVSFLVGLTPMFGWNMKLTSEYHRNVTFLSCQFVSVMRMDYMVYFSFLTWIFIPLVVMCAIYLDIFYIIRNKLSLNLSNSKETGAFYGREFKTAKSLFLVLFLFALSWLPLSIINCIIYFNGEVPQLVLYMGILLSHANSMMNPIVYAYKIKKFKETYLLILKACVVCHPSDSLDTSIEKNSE

GABA transporter = GABA transporter (Rattus norvegicus, UniProt P23978)
GABAB(1b) (h) = GABAB(1b) (h) (Homo sapiens, UniProt Q9UBS5); experiment: biochemical
sst4 (h) = sst4 (h) (Homo sapiens, UniProt P31391); assay type: binding; settings: 1.0E-06 M
β1 (h) = molecular target: T2, β1 (h) (Homo sapiens, UniProt P08588); assay type: binding; settings: 1.0E-06 M
T2 construct: host or cells: HEK-293 cells

PDE6 (non-selective) = molecular target: T3, PDE6 (non-selective) (Bos taurus, UniProt P11541+P23439); experiment: enzyme assay; assay type: biochemical, bovine; settings: 1.0E-06 M
T3 construct: PDE6 bovine [3H]cGMP; tissue Cerep (contract assay); host or cells: bovine retina
T3 sequence (P11541 2-856 limits assumed): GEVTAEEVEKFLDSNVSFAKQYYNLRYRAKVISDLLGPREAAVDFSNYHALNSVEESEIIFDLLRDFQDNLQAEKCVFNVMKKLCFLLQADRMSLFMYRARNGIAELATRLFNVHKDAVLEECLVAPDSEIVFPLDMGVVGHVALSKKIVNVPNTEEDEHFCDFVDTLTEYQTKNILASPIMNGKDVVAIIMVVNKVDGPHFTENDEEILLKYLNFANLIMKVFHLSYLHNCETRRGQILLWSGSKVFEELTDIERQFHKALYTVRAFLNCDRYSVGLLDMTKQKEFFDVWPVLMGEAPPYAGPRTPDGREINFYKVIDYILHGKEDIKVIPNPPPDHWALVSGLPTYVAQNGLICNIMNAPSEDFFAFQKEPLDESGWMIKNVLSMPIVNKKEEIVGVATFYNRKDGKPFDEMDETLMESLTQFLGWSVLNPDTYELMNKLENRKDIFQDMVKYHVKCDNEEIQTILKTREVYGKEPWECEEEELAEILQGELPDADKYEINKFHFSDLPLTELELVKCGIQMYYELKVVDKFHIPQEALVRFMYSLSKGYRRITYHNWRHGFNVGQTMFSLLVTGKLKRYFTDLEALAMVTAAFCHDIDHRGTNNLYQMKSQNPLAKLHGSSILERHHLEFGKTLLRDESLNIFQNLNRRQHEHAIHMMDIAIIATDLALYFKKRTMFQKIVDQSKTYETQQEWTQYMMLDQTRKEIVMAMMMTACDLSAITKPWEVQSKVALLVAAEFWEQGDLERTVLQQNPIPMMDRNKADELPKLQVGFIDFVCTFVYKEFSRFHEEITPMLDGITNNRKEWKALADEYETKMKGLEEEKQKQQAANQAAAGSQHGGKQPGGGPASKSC
T3 sequence (P23439 2-850 limits assumed): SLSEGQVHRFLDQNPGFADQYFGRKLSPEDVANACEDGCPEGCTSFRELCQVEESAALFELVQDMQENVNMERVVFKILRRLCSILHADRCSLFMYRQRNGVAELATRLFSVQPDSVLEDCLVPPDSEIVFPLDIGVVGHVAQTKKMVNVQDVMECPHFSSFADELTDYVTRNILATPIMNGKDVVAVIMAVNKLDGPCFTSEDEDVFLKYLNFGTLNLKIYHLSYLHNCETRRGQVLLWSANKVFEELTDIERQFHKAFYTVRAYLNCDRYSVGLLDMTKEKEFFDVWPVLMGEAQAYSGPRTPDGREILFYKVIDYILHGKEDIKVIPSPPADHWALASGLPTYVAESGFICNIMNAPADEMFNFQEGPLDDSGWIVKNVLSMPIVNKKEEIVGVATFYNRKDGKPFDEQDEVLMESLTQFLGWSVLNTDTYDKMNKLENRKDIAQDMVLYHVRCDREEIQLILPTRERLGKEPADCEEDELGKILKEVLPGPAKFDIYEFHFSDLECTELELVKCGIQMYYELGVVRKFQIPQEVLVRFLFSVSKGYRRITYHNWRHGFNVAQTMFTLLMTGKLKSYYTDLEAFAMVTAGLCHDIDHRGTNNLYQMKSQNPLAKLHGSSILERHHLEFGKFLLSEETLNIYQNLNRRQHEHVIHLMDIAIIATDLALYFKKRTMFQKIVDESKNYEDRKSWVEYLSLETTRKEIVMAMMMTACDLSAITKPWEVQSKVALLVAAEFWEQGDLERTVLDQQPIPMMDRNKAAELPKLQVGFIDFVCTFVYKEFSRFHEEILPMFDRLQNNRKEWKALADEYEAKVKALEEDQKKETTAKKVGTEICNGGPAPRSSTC

ACE (h) = molecular target: T4, ACE (h) (Homo sapiens, UniProt P12821); experiment: enzyme assay; assay type: biochemical; settings: 1.0E-06 M
T4 construct: Cerep (contract assay)
T4 sequence (P12821 30-1306): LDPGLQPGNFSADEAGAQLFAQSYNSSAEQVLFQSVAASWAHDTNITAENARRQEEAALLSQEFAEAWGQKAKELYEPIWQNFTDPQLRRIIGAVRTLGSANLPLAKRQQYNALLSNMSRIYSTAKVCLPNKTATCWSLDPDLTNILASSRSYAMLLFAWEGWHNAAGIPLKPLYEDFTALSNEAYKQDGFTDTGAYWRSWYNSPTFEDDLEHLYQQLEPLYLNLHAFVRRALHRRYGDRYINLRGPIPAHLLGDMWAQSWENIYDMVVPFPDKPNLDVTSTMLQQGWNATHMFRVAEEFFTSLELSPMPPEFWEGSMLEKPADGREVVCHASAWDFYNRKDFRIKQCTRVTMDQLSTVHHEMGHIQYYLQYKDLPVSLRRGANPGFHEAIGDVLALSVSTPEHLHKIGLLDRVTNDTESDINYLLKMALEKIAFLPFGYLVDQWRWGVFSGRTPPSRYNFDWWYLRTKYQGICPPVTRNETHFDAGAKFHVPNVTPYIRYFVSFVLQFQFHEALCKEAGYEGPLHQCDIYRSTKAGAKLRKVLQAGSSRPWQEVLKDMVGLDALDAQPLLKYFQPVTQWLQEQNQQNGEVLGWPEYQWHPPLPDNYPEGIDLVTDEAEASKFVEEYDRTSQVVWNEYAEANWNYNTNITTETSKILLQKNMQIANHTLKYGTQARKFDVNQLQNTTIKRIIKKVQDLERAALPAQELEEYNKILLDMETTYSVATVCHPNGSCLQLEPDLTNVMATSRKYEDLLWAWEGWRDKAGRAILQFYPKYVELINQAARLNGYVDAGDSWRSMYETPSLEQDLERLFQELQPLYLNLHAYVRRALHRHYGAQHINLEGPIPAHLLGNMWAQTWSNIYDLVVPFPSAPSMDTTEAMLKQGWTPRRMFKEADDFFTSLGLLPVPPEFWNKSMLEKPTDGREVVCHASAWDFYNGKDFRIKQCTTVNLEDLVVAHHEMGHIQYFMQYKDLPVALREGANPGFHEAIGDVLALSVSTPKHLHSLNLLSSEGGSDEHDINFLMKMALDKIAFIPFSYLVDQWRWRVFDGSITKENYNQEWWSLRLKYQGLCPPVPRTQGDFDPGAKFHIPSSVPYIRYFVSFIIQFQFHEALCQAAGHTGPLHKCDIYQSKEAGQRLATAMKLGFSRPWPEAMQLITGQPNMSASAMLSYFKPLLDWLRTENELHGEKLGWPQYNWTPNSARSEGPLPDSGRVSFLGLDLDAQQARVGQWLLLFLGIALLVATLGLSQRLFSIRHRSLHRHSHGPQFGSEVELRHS

sst4 (h), sequence (P31391 whole entry): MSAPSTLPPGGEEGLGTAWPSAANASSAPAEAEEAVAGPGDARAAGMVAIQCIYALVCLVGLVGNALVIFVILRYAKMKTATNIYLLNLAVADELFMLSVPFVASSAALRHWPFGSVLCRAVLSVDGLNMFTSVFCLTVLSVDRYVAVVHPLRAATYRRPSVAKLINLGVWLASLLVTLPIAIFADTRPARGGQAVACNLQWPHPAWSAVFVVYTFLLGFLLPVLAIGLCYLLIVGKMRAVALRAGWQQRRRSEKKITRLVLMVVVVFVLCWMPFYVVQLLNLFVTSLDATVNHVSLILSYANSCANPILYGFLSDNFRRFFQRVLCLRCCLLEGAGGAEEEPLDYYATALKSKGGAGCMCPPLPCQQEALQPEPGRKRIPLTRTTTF
T2 sequence (P08588 whole entry): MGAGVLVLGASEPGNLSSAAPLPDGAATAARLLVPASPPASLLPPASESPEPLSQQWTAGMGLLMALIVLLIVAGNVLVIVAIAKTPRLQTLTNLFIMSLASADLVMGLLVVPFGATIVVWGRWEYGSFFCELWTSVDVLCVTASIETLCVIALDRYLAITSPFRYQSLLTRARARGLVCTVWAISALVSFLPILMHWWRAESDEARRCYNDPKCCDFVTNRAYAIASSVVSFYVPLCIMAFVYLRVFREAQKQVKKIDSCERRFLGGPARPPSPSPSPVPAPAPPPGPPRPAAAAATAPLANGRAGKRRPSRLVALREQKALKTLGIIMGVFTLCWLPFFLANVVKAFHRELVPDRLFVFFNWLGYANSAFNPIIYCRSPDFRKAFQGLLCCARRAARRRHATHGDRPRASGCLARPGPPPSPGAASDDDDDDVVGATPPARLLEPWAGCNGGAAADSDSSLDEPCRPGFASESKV
GABAB(1b) (h), sequence (Q9UBS5 1-844 isoform Q9UBS5-2): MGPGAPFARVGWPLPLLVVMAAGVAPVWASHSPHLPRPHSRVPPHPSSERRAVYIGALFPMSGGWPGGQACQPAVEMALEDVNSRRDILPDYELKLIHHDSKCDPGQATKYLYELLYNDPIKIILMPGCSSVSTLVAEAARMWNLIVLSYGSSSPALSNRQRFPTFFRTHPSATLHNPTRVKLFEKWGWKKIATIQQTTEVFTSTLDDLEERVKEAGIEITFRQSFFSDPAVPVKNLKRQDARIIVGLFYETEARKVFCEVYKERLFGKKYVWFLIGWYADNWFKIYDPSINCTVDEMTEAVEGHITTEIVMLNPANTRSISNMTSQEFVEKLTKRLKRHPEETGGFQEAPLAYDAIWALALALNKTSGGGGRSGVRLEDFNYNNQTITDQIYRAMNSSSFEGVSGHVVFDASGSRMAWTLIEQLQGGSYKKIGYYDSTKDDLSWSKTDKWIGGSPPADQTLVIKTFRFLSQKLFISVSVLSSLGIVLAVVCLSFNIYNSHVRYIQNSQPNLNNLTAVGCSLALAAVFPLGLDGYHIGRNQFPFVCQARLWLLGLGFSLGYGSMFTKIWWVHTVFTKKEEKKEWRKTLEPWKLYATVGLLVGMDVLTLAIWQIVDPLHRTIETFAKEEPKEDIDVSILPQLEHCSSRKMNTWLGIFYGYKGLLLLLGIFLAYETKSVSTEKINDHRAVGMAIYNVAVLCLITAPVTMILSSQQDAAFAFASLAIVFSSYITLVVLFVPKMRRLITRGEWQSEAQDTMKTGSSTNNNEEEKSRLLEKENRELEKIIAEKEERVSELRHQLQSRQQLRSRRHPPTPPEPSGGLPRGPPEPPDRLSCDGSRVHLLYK
GABAB(1b) (h), sequence (O75899 42-941 partner): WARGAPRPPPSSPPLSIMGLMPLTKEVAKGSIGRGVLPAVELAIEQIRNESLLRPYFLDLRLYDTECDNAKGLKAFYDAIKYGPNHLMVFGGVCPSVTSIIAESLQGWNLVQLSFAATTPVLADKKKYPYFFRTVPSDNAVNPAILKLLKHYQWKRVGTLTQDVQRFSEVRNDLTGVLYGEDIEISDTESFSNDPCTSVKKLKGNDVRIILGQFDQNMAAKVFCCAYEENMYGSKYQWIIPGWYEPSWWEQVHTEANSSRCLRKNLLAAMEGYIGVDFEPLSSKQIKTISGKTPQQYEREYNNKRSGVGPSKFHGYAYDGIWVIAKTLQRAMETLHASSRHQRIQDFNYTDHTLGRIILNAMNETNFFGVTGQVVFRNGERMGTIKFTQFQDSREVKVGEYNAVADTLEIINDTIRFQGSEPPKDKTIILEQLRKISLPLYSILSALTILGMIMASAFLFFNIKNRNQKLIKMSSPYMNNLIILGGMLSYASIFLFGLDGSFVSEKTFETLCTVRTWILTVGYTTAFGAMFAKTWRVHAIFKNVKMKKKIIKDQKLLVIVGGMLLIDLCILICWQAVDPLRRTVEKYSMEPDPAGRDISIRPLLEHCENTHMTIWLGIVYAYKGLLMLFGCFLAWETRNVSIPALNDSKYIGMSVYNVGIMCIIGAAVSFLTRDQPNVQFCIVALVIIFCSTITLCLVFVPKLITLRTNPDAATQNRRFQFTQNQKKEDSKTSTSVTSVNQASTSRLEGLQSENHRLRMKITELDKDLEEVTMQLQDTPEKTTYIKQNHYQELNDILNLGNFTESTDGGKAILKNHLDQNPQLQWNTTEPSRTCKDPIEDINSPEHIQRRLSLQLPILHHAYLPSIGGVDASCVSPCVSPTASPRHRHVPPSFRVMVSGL

## Cn1c(=O)n(CCCO)c(=O)c2c1nc(Oc1cccc(OC(F)(F)F)c1)n2Cc1ccc(Cl)cc1 [HC-608]
Na+ channel (site 2)
  % Inhibition 1st: 12%
  % Inhibition 2nd: -7.3%
  % Inhibition Mean: 2.3%
A3 (h); read-out: % Inhibition 1st
  inhibition at 1 µM: 28.3%
A3 (h); read-out: % Inhibition 2nd
  inhibition at 1 µM: 36.4%
A3 (h); read-out: % Inhibition Mean
  inhibition at 1 µM: 32.3%
GABA transporter
  % Inhibition 2nd: -18.4%
  % Inhibition Mean: -15.7%
GABAB(1b) (h); read-out: % Inhibition 1st
  inhibition at 1 µM: -9%
GABAB(1b) (h); read-out: % Inhibition 2nd
  inhibition at 1 µM: -7.8%
GABAB(1b) (h); read-out: % Inhibition Mean
  inhibition at 1 µM: -8.4%
sst4 (h); read-out: % Inhibition 1st
  inhibition at 1 µM: -27%
sst4 (h); read-out: % Inhibition 2nd
  inhibition at 1 µM: 9.5%
sst4 (h); read-out: % Inhibition Mean
  inhibition at 1 µM: -8.8%
β1 (h); read-out: % Inhibition 1st
  inhibition at 1 µM: -14.5%
β1 (h); read-out: % Inhibition 2nd
  inhibition at 1 µM: -1.8%
β1 (h); read-out: % Inhibition Mean
  inhibition at 1 µM: -8.1%
PDE6 (non-selective); read-out: % Inhibition 1st
  inhibition at 1 µM: 25.3%
PDE6 (non-selective); read-out: % Inhibition 2nd
  inhibition at 1 µM: 8.8%
PDE6 (non-selective); read-out: % Inhibition Mean
  inhibition at 1 µM: 17%
ACE (h); read-out: % Inhibition 1st
  inhibition at 1 µM: 0%
ACE (h); read-out: % Inhibition 2nd
  inhibition at 1 µM: 6%
ACE (h); read-out: % Inhibition Mean
  inhibition at 1 µM: 3%
